IC50 data for 1 compound are collected here from publication PMC3021320 (FEBS letters, 2010).

In the assay the target is T1, Janus kinase 3 (JAK3) (Homo sapiens, UniProt P52333).
T1 sequence (P52333 1-1124): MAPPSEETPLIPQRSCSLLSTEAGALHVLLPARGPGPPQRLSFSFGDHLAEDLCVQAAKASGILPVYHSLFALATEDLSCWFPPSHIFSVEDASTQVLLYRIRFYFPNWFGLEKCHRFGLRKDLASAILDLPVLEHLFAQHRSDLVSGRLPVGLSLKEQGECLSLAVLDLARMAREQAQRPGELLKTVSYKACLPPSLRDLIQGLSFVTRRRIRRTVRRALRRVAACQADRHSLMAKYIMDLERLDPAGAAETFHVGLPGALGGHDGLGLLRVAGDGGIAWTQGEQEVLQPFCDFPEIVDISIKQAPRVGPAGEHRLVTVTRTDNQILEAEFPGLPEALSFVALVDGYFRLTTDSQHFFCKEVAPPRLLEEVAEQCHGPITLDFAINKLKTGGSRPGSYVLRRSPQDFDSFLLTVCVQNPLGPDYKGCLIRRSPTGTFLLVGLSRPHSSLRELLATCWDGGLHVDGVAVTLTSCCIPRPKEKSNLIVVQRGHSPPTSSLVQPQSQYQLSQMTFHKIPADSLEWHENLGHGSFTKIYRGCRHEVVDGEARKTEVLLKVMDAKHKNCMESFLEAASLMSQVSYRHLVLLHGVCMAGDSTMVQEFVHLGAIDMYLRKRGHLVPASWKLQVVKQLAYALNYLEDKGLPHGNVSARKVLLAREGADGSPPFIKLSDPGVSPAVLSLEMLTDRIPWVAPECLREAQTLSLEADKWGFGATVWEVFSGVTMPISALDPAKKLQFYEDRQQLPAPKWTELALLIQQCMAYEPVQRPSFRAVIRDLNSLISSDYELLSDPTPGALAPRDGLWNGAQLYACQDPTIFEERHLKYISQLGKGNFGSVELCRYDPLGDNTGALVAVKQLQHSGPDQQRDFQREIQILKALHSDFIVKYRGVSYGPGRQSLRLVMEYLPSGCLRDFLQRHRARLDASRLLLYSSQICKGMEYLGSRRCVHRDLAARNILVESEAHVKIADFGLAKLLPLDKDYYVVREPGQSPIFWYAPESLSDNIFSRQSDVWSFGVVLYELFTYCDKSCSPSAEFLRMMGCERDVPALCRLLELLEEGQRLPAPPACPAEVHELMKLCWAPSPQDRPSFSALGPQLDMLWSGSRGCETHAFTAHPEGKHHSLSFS
Description: kinase assay. It counts as cell-based.

In turn, `O=c1cc(-c2ccc(O)cc2)oc2cc(O)cc(O)c12` [apigenin] registered an IC50 of 1.3 nM.

By IC50 is commonly meant the point on the concentration scale where inhibition reaches its midpoint. Low values mean higher potency, high ones lower potency.
